Reference: patent US9737502B2, “Calebin A for hepatic steatosis” (SAMI LABS LIMITED, priority 2011, dated 2017)

Experiments:
3T3-L1 preadipocytes = assay: Differentiation and adipogenesis of 3T3-L1 preadipocytes, Oil Red O (Example IV); format: cell-based, Mouse; conditions: 5, 10, 15, 20, 25 and 30 μM for 8 days
Method: Mouse 3T3-L1 pre-adipocytes purchased from the American Type Culture Collection (Rockville, Md.) were grown in Dulbecco's Modified Eagle's Medium (DMEM) supplemented with 2 mM glutamine (GIBCO BRL), 1% penicillin/streptomycin (10000 units of penicillin/mL and 10 mg streptomycin/mL) and 10% fetal calf serum (FCS) at 37° C. under a humidified 5% CO2 atmosphere. Briefly, cells were seeded into 24-well (2×10^4/mL) or 10 cm dish with DMEM containing 10% fetal bovine serum (FBS) to full confluence. […]
At the end of differentiation, cells were washed twice with phosphate-buffered saline (PBS), fixed with 10% formalin for 60 min, stained with 0.5% Oil Red O in isopropanol for 1 h at room temperature. […] To quantify lipid accumulation, the stained lipid droplets were dissolved in isopropanol and the absorbance was measured at 520 nm.
Differentiation of 3T3-L1 preadipocytes stained with Oil Red O and photographed (upper and middle). 3T3-L1 preadipocytes were incubated with MDI (DMEM with IBMX, DEX, and insulin) for 2 days and then replaced with DMEM containing insulin with or without Calebin A (0, 5, 10, 15, 20, 25 and 30 μM), respectively, for 8 days, Lipid content was extracted from Oil Red O stained cells by 2-propanol and quantified by spectrophotometric analysis at 520 nm.

3T3-L1 cells = assay: Oil Red-O staining of adipogenic cultures (adipogenesis inhibition); format: cell-based, mouse
Method: Terminal differentiation of adipocytes is accompanied by the accumulation of great amounts of lipids in large cytoplasmic vesicles. A common assay to measure adipocyte differentiation in cell culture is with the dye Oil Red-O (ORO). ORO is a lipid-soluble bright red dye which is a reliable indicator of adipocyte differentiation (adipogenesis).
3T3-L1 cells approximately 60×10^4 cells are seeded for 48-72 hrs to get 70-80% confluence. After 48 hrs 200 μl of AIM (Adipogenesis induction medium) freshly prepared is added. 72 hrs later 200 μl APM (Adipogenesis progression medium) with the test compounds in different concentrations is added to the wells. The cells are incubated for 48 hrs in a humidified atmosphere (37° C.) of 5% CO2 and 95% air. The supernatant is collected and stored for the estimation of leptin, adiponectin, IL-6 and TNF-α by ELISA. Cells are fixed by adding 100 μl of 10% formalin and ORO staining is done. OD is read at 492 nm in microplate reader. The results are expressed as IC50 values using Graphpad prism software.
The percentage of inhibition of adipogenesis is calculated as follows, % inhibition=C−T/[…] Where C-absorbance of Oil red 0 in differentiating/undifferentiated cells T-absorbance of Oil Red-O in sample treated differentiating/undifferentiated cells. The estimation of leptin, adiponectin, IL-6 and TNF-α is done according to user's manual from R&D Systems.

mice = assay: Acute oral toxicity of Calebin A; format: in vivo
Method: No mortality was observed up to 2000 mg/kg p.o. in mice up to two weeks of observation.

## COc1cc(/C=C/C(=O)COC(=O)/C=C/c2ccc(O)c(OC)c2)ccc1O [Calebin A]
3T3-L1 preadipocytes
  differentiation and adipogenesis of 3T3-L1 preadipocytes: inhibits
3T3-L1 cells; 0.5 μg/ml
  percentage adipogenesis inhibition: 32.43%
3T3-L1 cells; 1.0 μg/ml
  percentage adipogenesis inhibition: 38.59%
3T3-L1 cells; 2.0 μg/ml
  percentage adipogenesis inhibition: 35.8%
mice; mouse, in vivo, po
  Autonomic Nervous System: Atexia: Atexia = Nil
  Autonomic Nervous System: Diarrhea: Diarrhea = Nil
  Autonomic Nervous System: Motor Activity: Motor Activity = Normal
  Autonomic Nervous System: Respiration Rate: Respiration Rate = Normal
  Central Nervous System: Clonic Convulsions: Clonic Convulsions = Nil
  Central Nervous System: Excitation: Excitation = Nil
  Central Nervous System: Motor Activity: Motor Activity = Nil
  Central Nervous System: Tonic Convulsion: Tonic Convulsion = Nil
  Central Nervous System: Tremors: Tremors = Nil
  Dermal: Blanching: Blanching = Nil
  Dermal: Cyanosis: Cyanosis = Nil
  Dermal: Hyperaemia: Hyperaemia = Nil
  Food and Water (Intake and Excretion): Fecal Output: Fecal Output = Normal
  Food and Water (Intake and Excretion): Urine Output: Urine Output = Normal
  General Behaviour: Aggression: Aggression = Nil
  General Behaviour: Fear: Fear = Nil
  General Behaviour: General Locomotor Activity: Normal
  General Behaviour: General Movement: General Movement = Normal
  General Behaviour: Passive: Passive = Nil
  General Parameters: Diarrhea: Diarrhea = Nil
  General Parameters: Muscular Weakness: Muscular Weakness = Nil
  General Parameters: Pilo Erection: Pilo Erection = Nil
  General Parameters: Salivation: Salivation = Nil
  Reflexes: Corneal: Corneal = No effect
  Reflexes: Pinnal: Pinnal = No effect
  Respiratory System: Respiration Depth: Respiration Depth = Normal
  Respiratory System: Respiration Rate: Respiration Rate = Normal
mice; up to 2000 mg/kg p.o., up to two weeks of observation
  mortality: No mortality
